pIC50: −log10 of the molar value.
Assays:
Plasmodium falciparum [1] = assay: Antimalarial activity against multidrug resistant Plasmodium falciparum NHP1337 assessed as growth inhibition after 72 hrs by SYBR Green based fluorescence assay; type: functional, organism-based
HeLa = assay: Cytotoxicity against human HeLa cells assessed as growth inhibition by sulforhodamine B assay; type: cell-based
[2] = Resistance index, ratio of IC50 for multidrug resistant Plasmodium falciparum NHP1337 to IC50 for multidrug sensitive Plasmodium falciparum HB3; type: functional
[3] = Selectivity ratio of IC50 for human HeLa cells to IC50 for multidrug sensitive Plasmodium falciparum HB3; type: ADME, cell-based; details: for selectivity ratio: HeLa cells versus Plasmodium falciparum HB3, read-out: Ratio IC50; for Ratio IC50: hela
Plasmodium falciparum [4] = assay: Antimalarial activity against multidrug sensitive Plasmodium falciparum HB3 assessed as growth inhibition after 72 hrs by SYBR Green based fluorescence assay; type: functional, organism-based
[5] = Selectivity ratio of IC50 for human HeLa cells to IC50 for multidrug resistant Plasmodium falciparum NHP1337; type: ADME, cell-based; details: for selectivity ratio: HeLa cells versus Plasmodium falciparum NHP1337, read-out: Ratio IC50; for Ratio IC50: hela
[6] = Plasmodium falciparum, NHP1337, 72 h
[7] = Plasmodium falciparum, HB3, 72 h

Row | Structure (SMILES) | pIC50 (Plasmodium falciparum [1]; [6]) | pIC50 (HeLa; Homo sapiens, HeLa) | Ratio IC50 [2] | selectivity ratio [3] | pIC50 (Plasmodium falciparum [4]; [7]) | selectivity ratio [5] | pIC50 (Plasmodium falciparum [4]) | pIC50 (Plasmodium falciparum [1]) | pIC50 (HeLa; hela) | Ratio IC50 [3] | Ratio IC50 [5]
1 | C[C@@H]1O[C@@H](Oc2c(-c3ccc(O)cc3)oc3cc(O)cc(O)c3c2=O)[C@H](OC(=O)/C=C\c2ccc(O)cc2)[C@H](OC(=O)/C=C\c2ccc(O)cc2)[C@H]1O | 5.15 | 4.80 | 3.9 | 8.9 | 5.74 | 2.3 | – | – | – | – | –
2 | C[C@@H]1O[C@@H](Oc2c(-c3ccc(O)cc3)oc3cc(O)cc(O)c3c2=O)[C@H](OC(=O)/C=C/c2ccc(O)cc2)[C@H](OC(=O)/C=C/c2ccc(O)cc2)[C@H]1O | 5.15 | 4.69 | 12 | 34 | 6.22 | 2.9 | – | – | – | – | –
3 | C=C(C)[C@@H]1CC[C@]2(CO)CC[C@]3(C)[C@H](CC[C@@H]4[C@@]5(C)CC[C@H](O)[C@@](C)(CO)[C@@H]5CC[C@]43C)[C@@H]12 | 5.28 | < 4.70 | 1.5 | > 5.9 | 5.47 | > 3.8 | – | – | – | – | –
4 | CC(=O)O[C@@H]1[C@@H](OC(=O)/C=C/c2ccc(O)cc2)[C@H](Oc2c(-c3ccc(O)cc3)oc3cc(O)cc(O)c3c2=O)O[C@H](COC(=O)/C=C/c2ccc(O)cc2)[C@H]1OC(C)=O | 5.68 | > 5.52 | 3.5 | < 5 | 6.22 | < 1.4 | – | – | – | – | –
5 | C=C(C)[C@@H]1CC[C@]2(CO)CC[C@]3(C)[C@H](CC[C@@H]4[C@@]5(C)CC[C@H](OC(=O)/C=C/c6ccc(O)cc6)[C@@](C)(CO)[C@@H]5CC[C@]43C)[C@@H]12 (stereo in doubt) [listing 1 of 2 here] | 5.80 | 4.66 | – | 9.6 | – | 14 | 5.64 | – | – | – | –
6 | CC(=O)O[C@@H]1[C@@H](OC(=O)/C=C\c2ccc(O)cc2)[C@H](Oc2c(-c3ccc(O)cc3)oc3cc(O)cc(O)c3c2=O)O[C@H](COC(=O)/C=C/c2ccc(O)cc2)[C@H]1OC(C)=O | 5.30 | > 5.52 | 5.6 | < 3.3 | 6.05 | < 0.6 | – | – | – | – | –
7 | COc1cc(O)c(-c2c(C)cc(O)c3c2C(=O)c2cccc(O)c2C3=O)c(O)c1C(C)=O [KNIPHOLONE] | 5.30 | 4.49 | 1 | 6.6 | – | 6.5 | – | – | – | – | –
8 | O=c1cc(-c2ccc(O)c(-c3c(O)cc(O)c4c(=O)cc(-c5ccc(O)cc5)oc34)c2)oc2cc(O)cc(O)c12 [AMENTOFLAVONE] | 4.72 | 4.33 | 0.8 | 1.9 | 4.60 | 2.4 | – | – | – | – | –
9 | CC(=O)O[C@@H]1[C@@H](OC(=O)/C=C/c2ccc(O)cc2)[C@H](Oc2c(-c3ccc(O)cc3)oc3cc(O)cc(O)c3c2=O)O[C@H](COC(=O)/C=C\c2ccc(O)cc2)[C@H]1OC(C)=O | 5.40 | > 5.52 | 5 | < 3.8 | 6.10 | < 0.8 | – | – | – | – | –
10 | C=C(C)[C@@H]1CC[C@]2(CO)CC[C@]3(C)[C@H](CC[C@@H]4[C@@]5(C)CC[C@H](O)[C@@](C)(COC(=O)/C=C\c6ccc(O)cc6)[C@@H]5CC[C@]43C)[C@@H]12 | 5.82 | 5.15 | 1.9 | 8.8 | 6.10 | 4.6 | – | – | – | – | –
11 | C=C(C)[C@@H]1CC[C@]2(CO)CC[C@]3(C)[C@H](CC[C@@H]4[C@@]5(C)CC[C@H](OC(=O)/C=C/c6ccc(O)cc6)[C@@](C)(CO)[C@@H]5CC[C@]43C)[C@@H]12 (stereo in doubt) [listing 2 of 2 here] | – | – | 0.7 | – | – | – | – | – | – | – | –
12 | C=C(C)[C@@H]1CC[C@]2(CO)CC[C@]3(C)[C@H](CC[C@@H]4[C@@]5(C)CC[C@H](OC(=O)/C=C/c6ccc(O)cc6)[C@@](C)(CO)[C@@H]5CC[C@]43C)[C@@H]12 (stereo in doubt; 6) [listing 1 of 2 here] | – | – | 0.7 | – | – | – | – | – | – | – | –
13 | C=C(C)[C@@H]1CC[C@]2(CO)CC[C@]3(C)[C@H](CC[C@@H]4[C@@]5(C)CC[C@H](OC(=O)/C=C/c6ccc(O)c(OC)c6)[C@@](C)(CO)[C@@H]5CC[C@]43C)[C@@H]12 | 5.64 | < 4.70 | 0.8 | > 6.7 | 5.52 | > 8.7 | – | – | – | – | –
14 | C=C(C)[C@@H]1CC[C@]2(CO)CC[C@]3(C)[C@H](CC[C@@H]4[C@@]5(C)CC[C@H](O)[C@@](C)(COC(=O)/C=C/c6ccc(O)c(OC)c6)[C@@H]5CC[C@]43C)[C@@H]12 (stereo in doubt) [listing 1 of 2 here] | – | – | – | – | 6.00 | – | – | 6.51 | 4.70 | 20 | 65
15 | CC(=O)O[C@@H]1[C@@H](OC(=O)/C=C\c2ccc(O)cc2)[C@H](Oc2c(-c3ccc(O)cc3)oc3cc(O)cc(O)c3c2=O)O[C@H](COC(=O)/C=C\c2ccc(O)cc2)[C@H]1OC(C)=O | 5.42 | > 5.52 | 1.8 | < 1.4 | 5.68 | < 0.8 | – | – | – | – | –
16 | C=C(C)[C@@H]1CC[C@]2(CO)CC[C@]3(C)[C@H](CC[C@@H]4[C@@]5(C)CC[C@H](O)[C@@](C)(COC(=O)/C=C/c6ccc(O)c(OC)c6)[C@@H]5CC[C@]43C)[C@@H]12 (stereo in doubt; 3) [listing 1 of 2 here] | 6.57 | < 4.70 | – | > 40 | – | > 74 | 6.30 | – | – | – | –
17 | C=C(C)[C@@H]1CC[C@]2(CO)CC[C@]3(C)[C@H](CC[C@@H]4[C@@]5(C)CC[C@H](O)[C@@](C)(COC(=O)/C=C/c6ccc(O)cc6)[C@@H]5CC[C@]43C)[C@@H]12 | 6.07 | 4.55 | 0.9 | 31 | 6.05 | 33 | – | – | – | – | –
18 | C[C@@H]1O[C@@H](Oc2c(-c3ccc(O)cc3)oc3cc(O)cc(O)c3c2=O)[C@H](OC(=O)/C=C/c2ccc(O)cc2)[C@H](OC(=O)/C=C\c2ccc(O)cc2)[C@H]1O | 5.40 | 4.92 | 2 | 6 | 5.70 | 3 | – | – | – | – | –
19 | C=C(C)[C@@H]1CC[C@]2(CO)CC[C@]3(C)[C@H](CC[C@@H]4[C@@]5(C)CC[C@H](OC(=O)/C=C/c6ccc(O)cc6)[C@@](C)(CO)[C@@H]5CC[C@]43C)[C@@H]12 (stereo in doubt; 6) [listing 2 of 2 here] | – | – | – | – | 5.72 | – | – | 5.85 | < 4.70 | > 11 | > 14
20 | C[C@@H]1O[C@@H](Oc2c(-c3ccc(O)cc3)oc3cc(O)cc(O)c3c2=O)[C@H](OC(=O)/C=C\c2ccc(O)cc2)[C@H](OC(=O)/C=C/c2ccc(O)cc2)[C@H]1O | 5.39 | 5.03 | 8.2 | 19 | 6.30 | 2.3 | – | – | – | – | –
21 | C=C(C)[C@@H]1CC[C@]2(CO)CC[C@]3(C)[C@H](CC[C@@H]4[C@@]5(C)CC[C@H](O)[C@@](C)(COC(=O)/C=C/c6ccc(O)c(OC)c6)[C@@H]5CC[C@]43C)[C@@H]12 (stereo in doubt; 3) [listing 2 of 2 here] | – | – | 0.5 | – | – | – | – | – | – | – | –
22 | C=C(C)[C@@H]1CC[C@]2(CO)CC[C@]3(C)[C@H](CC[C@@H]4[C@@]5(C)CC[C@H](O)[C@@](C)(COC(=O)/C=C/c6ccc(O)c(OC)c6)[C@@H]5CC[C@]43C)[C@@H]12 (stereo in doubt) [listing 2 of 2 here] | – | – | 0.3 | – | – | – | – | – | – | – | –

From ChEMBL document CHEMBL3813696, “Identification of Compounds with Efficacy against Malaria Parasites from Common North American Plants” (J Nat Prod, 2016)
